From patent US10392383B2, “3-(1H-benzo[d]imidazol-2-yl)-1H-pyrazolo[4,3-b]pyridines and therapeutic uses thereof” (Samumed, LLC, priority 2015, dated 2019)

Legend:
Type in all cases: cell-based
[1] = test system: Wnt activity (Sp5-Luc reporter, Wnt-responsive promoter) in SW480 colon carcinoma cells; assay: Wnt activity screening assay: Sp5-Luc reporter gene assay in SW480 cells; conditions: Homo sapiens; for EC50: overnight incubation, 10-point curve starting from 10 μM; for inhibition at 10 µM: read-out: percent inhibition at 10 μM (given for EC50 of >10 μM)
From the text: The screening assay for Wnt activity is described as follows. Reporter cell lines can be generated by stably transducing cancer cell lines (e.g., colon cancer) or primary cells (e.g., IEC-6 intestinal cells) with a lentiviral construct that includes a Wnt-responsive promoter driving expression of the firefly luciferase gene.
SW480 colon carcinoma cells were transduced with a lentiviral vector expressing luciferase with a human Sp5 promoter consisting of a sequence of eight TCF/LEF binding sites. SW480 cells stably expressing the Sp5-Luc reporter gene and a hygromycin resistance gene were selected by treatment with 150 μg/mL of hygromycin for 7 days. These stably transduced SW480 cells were expanded in cell culture and used for all further screening activities. Each compound was dissolved in DMSO as a 10 mM stock and used to prepare compound source plates. Serial dilution (1:3, 10-point dose-response curves starting from 10 μM) and compound transfer was performed using the ECHO 550 (Labcyte, Sunnyvale, Calif.) into 384-well white solid bottom assay plates (Greiner Bio-One) with appropriate DMSO backfill for a final DMSO concentration of 0.1%. For Sp5-Luc reporter gene assays, the cells were plated at 4,000 cells/well in 384-well plates with medium containing 1% fetal bovine serum and incubated overnight at 37° C. and 5% CO2. Following incubation, 20 μl of BrightGlo luminescence reagent (Promega) was added to each well of the 384-well assay plates. The plates were placed on an orbital shaker for 2 min and then luminescence was quantified using the Envision (Perkin Elmer) plate reader. Readings were normalized to DMSO only treated cells, and normalized activities were utilized for EC50 calculations using the dose-response log (inhibitor) vs. response-variable slope (four parameters) nonlinear regression feature available in GraphPad Prism 5.0 (or Dotmatics). For EC50 of >10 μM, the percent inhibition at 10 μM is provided.

[2] = test system: primary human fibroblasts derived from IPF patients (LL29 cells) treated with TGF-β1; assay: Inhibition of the fibrotic process: αSMA staining in TGF-β1-treated LL29 fibroblasts; conditions: Fibroblast; for EC50: 96 h, LL29 fibroblasts treated with TGF-β1 (20 ng/mL), 4 days, Table 4; for inhibition at 10 µM: LL29 fibroblasts treated with TGF-β1, Table 4, read-out: percent inhibition at 10 μM (given in parentheses for EC50 >10 μM)
From the text: Representative compounds were screened using primary human fibroblasts (derived from IPF patients) treated with TGF-β1 to determine their ability to inhibit the fibrotic process.
Human Fibroblast Cell Culture: Primary human fibroblasts derived from IPF patients (LL29 cells) [^1Xiaoqiu Liu, et. al., “Fibrotic Lung Fibroblasts Show Blunted Inhibition by cAMP Due to Deficient cAMP Response Element-Binding Protein Phosphorylation”, Journal of Pharmacology and Experimental Therapeutics (2005), 315(2), 678-687; ^2Watts, K. L., et. al., “RhoA signaling modulates cyclin D1 expression in human lung fibroblasts; implications for idiopathic pulmonary fibrosis”, Respiratory Research (2006), 7(1), 88] were obtained from American Type Culture Collection (ATCC) and expanded in F12 medium supplemented with 15% Fetal Bovine Serum and Penicillin/Streptomycin.
Compound Screening: Each compound was dissolved in DMSO as a 10 mM stock and used to prepare compound source plates. Serial dilution (1:2, 11-point dose-response curves from 10 μM to […]) and compound transfer was performed using the ECHO 550 (Labcyte, Sunnyvale, Calif.) into 384-well clear bottom assay plates (Greiner Bio-One) with appropriate DMSO backfill for a final DMSO concentration of 0.1%. LL29 cells are plated at 1,500 cells/well in 80 μL/well F12 medium supplemented with 1% Fetal Bovine Serum. One hour after addition of the cells, TGF-β1 (Peprotech; 20 ng/mL) was added to the plates to induce fibrosis (ref. 1 and 2 above). Wells treated with TGF-β1 and containing DMSO were used as controls. Cells were incubated at 37° C. and 5% CO2 for 4 days. Following incubation for 4 days, SYTOX green nucleic acid stain (Life Technologies [Thermo Fisher Scientific]) was added to the wells at a final concentration of 1 μM and incubated at room temperature for 30 min. Cells were then fixed using 4% formaldehyde (Electron Microscopy Sciences), washed 3 times with PBS followed by blocking and permeabilization using 3% Bovine Serum Albumin (BSA; Sigma) and 0.3% Triton X-100 (Sigma) in PBS. Cells were then stained with antibody specific to α-smooth muscle actin (αSMA; Abcam) (ref. 1 and 2 above) in 3% Bovine Serum Albumin (BSA; Sigma) and 0.3% Triton X-100 (Sigma) in PBS, and incubated overnight at 4° C. Cells were then washed 3 times with PBS, followed by incubation with Alexa Flor-647 conjugated secondary antibody (Life Technologies [Thermo Fisher Scientific]) and DAPI at room temperature for 1 hour. Cells were then washed 3 times with PBS and plates were sealed for imaging. αSMA staining was imaged by excitation at 630 nm and emission at 665 nm and quantified using the Compartmental Analysis program on the CellInsight CX5 (Thermo Scientific). Dead or apoptotic cells were excluded from analysis based on positive SYTOX green staining. % of total cells positive for αSMA were counted in each well and normalized to the average of 11 wells treated with TGF-β1 on the same plate using Dotmatics' Studies Software. The normalized averages (fold change over untreated) of 3 replicate wells for each compound concentration were used to create dose-responses curves and EC50 values were calculated using non-linear regression curve fit in the Dotmatics' Studies Software. For EC50 of >10 μM, the percent inhibition at 10 μM is provided.

SW480 colon cancer cells = assay: Cell viability assay (CellTiter-Blue) in SW480 cells; conditions: Homo sapiens, 96 h, four days; for EC50: CellTiter-Blue, 10 μM to 0.0045 μM; for inhibition at 10 µM: read-out: percent inhibition at 10 μM (given for EC50 of >10 μM)
Method: Representative compounds were screened using the following assay procedure to assess the effect on cell viability as described below.
Each compound was dissolved in DMSO as a 10 mM stock and used to prepare compound source plates. Serial dilution (1:3, 8-point dose-response curves from 10 μM to 0.0045 μM) and compound transfer was performed using the ECHO 550 (Labcyte, Sunnyvale, Calif.) into 96-well clear bottom, black-walled plates (Corning-Costar).
Approximately 2×10^3 SW480 colon cancer cells were seeded into each well and allowed to incubate in the presence or absence of compound for four days at 37° C./5% CO2. Eight replicates of DMSO-treated cells served as controls and cells treated with compound were performed in duplicate.
After incubation, 20 μL of CellTiter-Blue (Promega) was added to each well allowed to incubate for approximately 3 hours. This reagent was a buffered solution which contains resazurin, metabolically active cells were able to reduce rezarurin (blue) into resorufin (pink) which was highly fluorescent. This measured fluorescence was used as a readout for cell viability.
After incubation, the plates were read at Ex 560 nm Em 590 nm (Cytation 3, BioTek). Dose-response curves were generated and EC50 concentration values were calculated using non-linear regression curve fit in the GraphPad Prism (San Diego, Calif.) or Dotmatics' Studies Software (Bishops Stortford, UK). For EC50 of >10 μM, the percent inhibition at 10 μM is provided.

| SMILES | EC50 [1] [µM] | EC50 [2] [µM] | EC50 (SW480 colon cancer cells) [µM] | inhibition at 10 µM [2] [%] | inhibition at 10 µM [1] [%] | inhibition at 10 µM (SW480 colon cancer cells) [%] |
| --- | --- | --- | --- | --- | --- | --- |
| Fc1cccc(-c2cccc3[nH]c(-c4n[nH]c5ccc(-c6cncc(CN7CCC(F)(F)C7)c6)nc45)nc23)c1 [Compound 26, 5-(5-((3,3-Difluoropyrrolidin-1-yl)methyl)pyridin-3-yl)-3-(4-(3-fluorophenyl)-1H-benzo[d]imidazol-2-yl)-1H-pyrazolo[4,3-b]pyridine] | 2.1 | 1.65 | 5.82 |  |  |  |
| CC(C)(C)C(=O)Nc1cncc(-c2ccc3[nH]nc(-c4nc5c(-c6ccc(F)cc6)cccc5[nH]4)c3n2)c1 [Compound 36, N-(5-(3-(4-(4-Fluorophenyl)-1H-benzo[d]imidazol-2-yl)-1H-pyrazolo[4,3-b]pyridin-5-yl)pyridin-3-yl)pivalamide] | 3.01 | > 10 | 8.48 | 33.6 |  |  |
| Fc1ccc(-c2cccc3[nH]c(-c4n[nH]c5ccc(-c6cncc(CN7CCCC7)c6)nc45)nc23)cc1 [Compound 42, 3-(4-(4-Fluorophenyl)-1H-benzo[d]imidazol-2-yl)-5-(5-(pyrrolidin-1-ylmethyl)pyridin-3-yl)-1H-pyrazolo[4,3-b]pyridine] | 1.08 | 3.51 | 0.547 |  |  |  |
| O=C(Nc1cncc(-c2ccc3[nH]nc(-c4nc5c(-c6ccc(F)cc6)cccc5[nH]4)c3n2)c1)C1CCC1 [Compound 49, N-(5-(3-(4-(4-Fluorophenyl)-1H-benzo[d]imidazol-2-yl)-1H-pyrazolo[4,3-b]pyridin-5-yl)pyridin-3-yl)cyclobutanecarboxamide] | > 10 | > 10 | > 10 | 0 | 28.3 | 12.9 |
| Fc1ccc(-c2cccc3[nH]c(-c4n[nH]c5ccc(-c6cncnc6)nc45)nc23)cc1 [Compound 55, 3-(4-(4-Fluorophenyl)-1H-benzo[d]imidazol-2-yl)-5-(pyrimidin-5-yl)-1H-pyrazolo[4,3-b]pyridine] | > 10 | 3.07 | > 10 |  | 6.5 | 4.1 |
| Nc1cncc(-c2ccc3[nH]nc(-c4nc5c(-c6ccccc6F)cccc5[nH]4)c3n2)c1 [Compound 59, 5-(3-(4-(2-Fluorophenyl)-1H-benzo[d]imidazol-2-yl)-1H-pyrazolo[4,3-b]pyridin-5-yl)pyridin-3-amine] | 1.34 | 1.39 | 1.64 |  |  |  |
| CC(C)C(=O)Nc1cncc(-c2ccc3[nH]nc(-c4nc5c(-c6ccccc6F)cccc5[nH]4)c3n2)c1 [Compound 65, N-(5-(3-(4-(2-fluorophenyl)-1H-benzo[d]imidazol-2-yl)-1H-pyrazolo[4,3-b]pyridin-5-yl)pyridin-3-yl)isobutyramide] | 5.1 | 4.97 | > 10 |  |  | 16.1 |
| CC(C)(C)CC(=O)Nc1cncc(-c2ccc3[nH]nc(-c4nc5c(-c6ccccc6F)cccc5[nH]4)c3n2)c1 [Compound 72, N-(5-(3-(4-(2-Fluorophenyl)-1H-benzo[d]imidazol-2-yl)-1H-pyrazolo[4,3-b]pyridin-5-yl)pyridin-3-yl)-3,3-dimethylbutanamide] | > 10 | 2.18 | > 10 |  | 11.6 | 2 |
| O=C(Nc1cncc(-c2ccc3[nH]nc(-c4nc5c(-c6ccccc6F)cccc5[nH]4)c3n2)c1)C1CCCC1 [Compound 78, N-(5-(3-(4-(2-Fluorophenyl)-1H-benzo[d]imidazol-2-yl)-1H-pyrazolo[4,3-b]pyridin-5-yl)pyridin-3-yl)cyclopentanecarboxamide] | > 10 | 2.49 | > 10 |  | 29 | 20 |
| Fc1ccccc1-c1cccc2[nH]c(-c3n[nH]c4ccc(-c5cncc(CNCC6CCCC6)c5)nc34)nc12 [Compound 81, 1-Cyclopentyl-N-((5-(3-(4-(2-fluorophenyl)-1H-benzo[d]imidazol-2-yl)-1H-pyrazolo[4,3-b]pyridin-5-yl)pyridin-3-yl)methyl)methanamine] | 1.14 | 0.627 | 1.14 |  |  |  |
| c1cncc(-c2ccc3[nH]nc(-c4nc5c(-c6cccnc6)cccc5[nH]4)c3n2)c1 [Compound 88, 5-(Pyridin-3-yl)-3-(4-(pyridin-3-yl)-1H-benzo[d]imidazol-2-yl)-1H-pyrazolo [4,3-b]pyridine] | 2.62 | > 10 | 6.69 | 0 |  |  |
| CC(C)C(=O)Nc1cncc(-c2ccc3[nH]nc(-c4nc5c(-c6cccnc6)cccc5[nH]4)c3n2)c1 [Compound 93, N-(5-(3-(4-(Pyridin-3-yl)-1H-benzo[d]imidazol-2-yl)-1H-pyrazolo[4,3-b]pyridin-5-yl)pyridin-3-yl)isobutyramide] | 3.78 | > 10 | > 10 | 0 |  | 29.9 |
| CC(C)Nc1cncc(-c2ccc3[nH]nc(-c4nc5c(-c6cccnc6)cccc5[nH]4)c3n2)c1 [Compound 96, N-Isopropyl-5-(3-(4-(pyridin-3-yl)-1H-benzo[d]imidazol-2-yl)-1H-pyrazolo [4,3-b]pyridin-5-yl)pyridin-3-amine] | 2.54 | 1.21 | 8.95 |  |  |  |
